Test results reported in ChEMBL document CHEMBL4007424, “Design and Synthesis of Enantiomerically Pure Decahydroquinoxalines as Potent and Selective κ-Opioid Receptor Agonists with Anti-Inflammatory Activity in Vivo” (J Med Chem, 2017).
pKi: −log10 of the molar value. The source made the active and inactive calls. The calls are words filed in the database; no cut-off is given here.

Legend:
[1] = Plasma concentration in Wistar Han rat at 1 mg/kg, iv measured 0.25 hrs post compound administration; format: ADME, organism-based
[2] = Plasma concentration in Wistar Han rat at 1 mg/kg, iv measured 1 hr post compound administration; format: ADME, organism-based
[3] = Drug level in Wistar Han rat brain at 1 mg/kg, iv measured 1 hr post compound administration; format: ADME, organism-based; conditions: Wistar Han, brain, read-out: Drug uptake
[4] = Ratio of drug level in brain to plasma in Wistar Han rat at 1 mg/kg, iv after 1 hr; format: ADME, organism-based; conditions: read-out: BPR
[5] = test system: Rattus norvegicus; assay: Toxicity in Wistar Han rat assessed as induction of slight lethargy at 1 mg/kg, iv after 0.25 hrs; format: organism-based; conditions: in vivo
[6] = test system: Rattus norvegicus; assay: Toxicity in Wistar Han rat assessed as induction of slight lethargy at 5 mg/kg, iv after 1 hr; format: organism-based; conditions: in vivo
[7] = molecular target: Mu-type opioid receptor (Cavia porcellus) (UniProt P97266); assay: Displacement of [3H]DAMGO from mu-type opioid receptor in guinea pig brain membranes at 1 uM after 120 mins by solid scintillation counting; format: cell membranes; conditions: Membrane
Mu-type opioid receptor (Cavia porcellus), sequence (P97266 whole entry): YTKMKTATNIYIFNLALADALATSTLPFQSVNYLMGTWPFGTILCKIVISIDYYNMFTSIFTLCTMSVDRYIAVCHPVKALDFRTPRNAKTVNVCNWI

[8] = molecular target: Sigma non-opioid intracellular receptor 1 (Cavia porcellus) (UniProt Q60492); assay: Displacement of [3H]-(+)-pentazocine from sigma1-type […] receptor in guinea pig cortex membranes at 1 uM after 120 mins by solid scintillation counting; format: cell membranes
Sigma non-opioid intracellular receptor 1 (Cavia porcellus), sequence (Q60492 whole entry): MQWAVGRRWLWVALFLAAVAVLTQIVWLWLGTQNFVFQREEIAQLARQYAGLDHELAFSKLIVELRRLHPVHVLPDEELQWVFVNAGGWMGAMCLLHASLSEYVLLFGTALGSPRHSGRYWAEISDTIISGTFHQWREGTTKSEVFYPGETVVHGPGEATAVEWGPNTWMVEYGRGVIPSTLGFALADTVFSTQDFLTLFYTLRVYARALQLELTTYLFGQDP

[9] = organism: Rattus norvegicus; assay: Displacement of [3H]-DTG from sigma 2 receptor in rat liver membranes at 1 uM after 120 mins by scintillation counting; format: cell membranes; conditions: Membrane
[10] = organism: Sus scrofa; assay: Displacement of [3H]-(+)-MK 801 from PCP binding site of NMDA receptor in pig brain cortex membranes at 10 uM after 120 mins by solid scintillation counting; format: cell membranes
[11] = molecular target: Kappa-type opioid receptor (Homo sapiens, UniProt P41145); assay: Agonist activity at recombinant human kappa-type opioid receptor expressed in HEK293 cells at 1 uM after 30 mins by [35S]GTPgammaS binding assay; format: functional, cell-based
Kappa-type opioid receptor, sequence (P41145 whole entry): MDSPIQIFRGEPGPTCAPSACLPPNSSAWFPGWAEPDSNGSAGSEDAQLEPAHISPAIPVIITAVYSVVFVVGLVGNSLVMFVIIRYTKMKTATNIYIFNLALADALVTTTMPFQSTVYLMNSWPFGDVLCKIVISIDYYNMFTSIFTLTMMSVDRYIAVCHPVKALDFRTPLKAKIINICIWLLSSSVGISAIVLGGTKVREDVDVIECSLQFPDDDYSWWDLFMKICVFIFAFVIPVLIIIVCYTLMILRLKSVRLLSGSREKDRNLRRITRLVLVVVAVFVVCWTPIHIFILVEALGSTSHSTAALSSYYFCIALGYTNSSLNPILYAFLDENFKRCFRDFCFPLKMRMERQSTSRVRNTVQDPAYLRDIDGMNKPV

[12] = organism: Cavia porcellus; assay: Selectivity ratio of Ki for delta-type opioid receptor in guinea pig brain membranes to Ki for kappa-type opioid receptor in guinea pig brain membranes; format: cell membranes
[13] = test system: Mus musculus; assay: (§1) Antiinflammatory activity in oxazolone-induced delayed type hypersensitivity BALB/c mouse model assessed as reduction in ear weight at 0.1 to 2.5 mg applied topically on ear administered 3 hrs prior to oxazolone challenge on day 7 to 12 post sensitization followed by re-administration of compound on day 13 to 18 without oxazolone challenge measured on day 19; format: functional
[14] = test system: Mus musculus; assay: (§2) Antiinflammatory activity in oxazolone-induced delayed type hypersensitivity BALB/c mouse model assessed as reduction in ear swelling at 0.1 to 2.5 mg applied topically on ear administered 3 hrs prior to oxazolone challenge on day 7 to 12 post sensitization followed by re-administration of compound on day 13 to 18 without oxazolone challenge measured daily prior to treatment from day 7 to 19; format: functional
[15] = test system: Mus musculus; assay: as §2, with “effect on histology changes” for “reduction in ear swelling”, “19 by H and E staining based assay” for “19”; format: functional
[16] = Displacement of [3H]-DTG from sigma 2 receptor in rat liver membranes after 120 mins by scintillation counting; format: cell membranes, Membrane
[17] = test system: Mus musculus; assay: Antiinflammatory activity in arachidonic acid-induced ear dermatitis ICR mouse model assessed as reduction in ear swelling at 0.1 mg administered twice tropically 30 mins prior and 15 mins after arachidonic acid addition measured 60 mins post arachidonic acid challenge relative to control; format: functional
[18] = test system: Mus musculus; assay: Antiinflammatory activity in arachidonic acid-induced ear dermatitis ICR mouse model assessed as reduction in ear swelling at 0.3 mg administered twice tropically 30 mins prior and 15 mins after arachidonic acid addition measured 60 mins post arachidonic acid challenge relative to control; format: functional
[19] = test system: Mus musculus; assay: Antiinflammatory activity in arachidonic acid-induced ear dermatitis ICR mouse model assessed as reduction in ear swelling at 1 mg administered twice tropically 30 mins prior and 15 mins after arachidonic acid addition measured 60 mins post arachidonic acid challenge relative to control; format: functional
[20] = test system: Mus musculus; assay: Antiinflammatory activity in arachidonic acid-induced ear dermatitis ICR mouse model assessed as reduction in ear swelling at 3 mg administered twice tropically 30 mins prior and 15 mins after arachidonic acid addition measured 60 mins post arachidonic acid challenge relative to control; format: functional
[21] = test system: Mus musculus; assay: as §1, with “as” for “as reduction in”, “0.5” for “0.1 to 2.5”, “19 (reference value: 30.2 +/- 0.7 mg)” for “19”; format: functional
[22] = test system: Mus musculus; assay: as §1, with “as” for “as reduction in”, “at” for “at 0.1 to”, “19 (reference value: 30.2 +/- 0.7 mg)” for “19”; format: functional
[23] = test system: Mus musculus; assay: Antinociceptive activity in sc dosed mouse model of acetic acid-induced writhing; format: functional
[24] = test system: Mus musculus; assay: CNS toxicity in sc dosed mouse model of acetic acid-induced writhing assessed as lowest dose causing side effects; format: organism-based; conditions: in vivo
[25] = Plasma concentration in Wistar Han rat at 5 mg/kg, iv measured 0.25 hrs post compound administration; format: ADME, organism-based
[26] = Plasma concentration in Wistar Han rat at 5 mg/kg, iv measured 1 hr post compound administration; format: ADME, organism-based
[27] = Drug level in Wistar Han rat brain at 5 mg/kg, iv measured 1 hr post compound administration; format: ADME, organism-based; conditions: read-out: Drug uptake
[28] = Ratio of drug level in brain to plasma in Wistar Han rat at 5 mg/kg, iv after 1 hr; format: ADME, organism-based; conditions: read-out: BPR
[29] = test system: Rattus norvegicus; assay: Toxicity in Wistar Han rat assessed as severe lethargy at 5 mg/kg, iv after 0.25 hrs; format: organism-based; conditions: in vivo
[30] = test system: Rattus norvegicus; assay: Toxicity in Wistar Han rat assessed as moderate tonic spasms at 5 mg/kg, iv after 0.25 hrs; format: organism-based; conditions: in vivo
[31] = test system: Rattus norvegicus; assay: Toxicity in Wistar Han rat assessed as moderate extension spasms of the tail at 5 mg/kg, iv after 0.25 hrs; format: organism-based; conditions: in vivo
[32] = test system: Rattus norvegicus; assay: Toxicity in Wistar Han rat assessed as severe cramped posture at 5 mg/kg, iv after 0.25 hrs; format: organism-based; conditions: in vivo
[33] = test system: Rattus norvegicus; assay: Toxicity in Wistar Han rat assessed as flat posture at 5 mg/kg, iv after 0.25 hrs; format: organism-based; conditions: in vivo
[34] = test system: Rattus norvegicus; assay: Toxicity in Wistar Han rat assessed as severe lethargy at 5 mg/kg, iv after 1 hr; format: organism-based; conditions: in vivo
[35] = test system: Rattus norvegicus; assay: Toxicity in Wistar Han rat assessed as moderate tonic spasms at 5 mg/kg, iv after 1 hr; format: organism-based; conditions: in vivo
[36] = test system: Rattus norvegicus; assay: Toxicity in Wistar Han rat assessed as moderate extension spasms of the tail at 5 mg/kg, iv after 1 hr; format: organism-based; conditions: in vivo
[37] = test system: Rattus norvegicus; assay: Toxicity in Wistar Han rat assessed as severe cramped posture at 5 mg/kg, iv after 1 hr; format: organism-based; conditions: in vivo
[38] = test system: Rattus norvegicus; assay: Toxicity in Wistar Han rat assessed as flat posture at 5 mg/kg, iv after 1 hr; format: organism-based; conditions: in vivo
[39] = test system: Mus musculus; assay: Antiinflammatory activity in arachidonic acid-induced ear dermatitis ICR mouse model assessed as reduction in ear swelling at 3 mg administered tropically 30 mins prior and 15 min after arachidonic acid addition measured 60 mins post arachidonic acid challenge relative to control; format: functional

COC(=O)N1CCN(C(=O)Cc2ccc(Cl)c(Cl)c2)[C@@H]2[C@@H](N(C)C)CCC[C@@H]21.Cl
concentration at 0.25 h [1]: 355 ng/mL | concentration at 1 h [2]: 186 ng/mL | concentration at 1 h [3]: 101 ng/g | Kp at 1 h [4]: 0.54 | Activity [5]: Toxic | Activity [6]: Toxic

COC(=O)N1CCN(C(=O)Cc2ccc(F)c(Cl)c2)[C@@H]2[C@@H](N3CC[C@H](F)C3)CCC[C@@H]21
inhibition [7]: 0% | inhibition [8]: 0% | inhibition [9]: 0% | inhibition [10]: 0% | Activity [11]: 92% | Ratio Ki [12]: 100 | Activity [13]: inactive | Activity [14]: inactive | Activity [15]: Active

COC(=O)N1CCN(C(=O)Cc2ccc(Cl)c(Cl)c2)[C@@H]2[C@@H](N3CCCC3)CCC[C@@H]21
pKi [16]: 6.60 | inhibition (INH) [17]: 23% | inhibition (INH) [18]: 27% | inhibition (INH) [19]: 27% | inhibition (INH) [20]: 51% | Activity [21]: 27.5 mg | Activity [22]: 28.2 mg | ED50 [23]: 0.26 mg/kg | MTC [24]: 0.06 mg/kg

COC(=O)N1CCN(C(=O)Cc2ccc(F)c(Cl)c2)[C@@H]2[C@@H](N3CC[C@H](F)C3)CCC[C@@H]21.Cl
concentration at 0.25 h [25]: 3070 ng/mL | concentration at 1 h [26]: 811 ng/mL | concentration at 1 h [27]: 86.6 ng/g | Kp at 1 h [28]: 0.11 | Activity [29]: Toxic | Activity [30]: Toxic | Activity [31]: Toxic | Activity [32]: Toxic | Activity [33]: Toxic | Activity [34]: Toxic | Activity [35]: Toxic | Activity [36]: Toxic | Activity [37]: Toxic | Activity [38]: Toxic

COc1ccc2c(c1)c(CC(=O)O)c(C)n2C(=O)c1ccc(Cl)cc1 [INDOMETHACIN]
inhibition (INH) [39]: 38% | inhibition (INH) [17]: 38 - 65% | inhibition (INH) [20]: 38 - 65%
